Data reported in ChEMBL document CHEMBL3272271, “Folate antagonists. 13. 2,4-Diamino-6-](alpha,alpha,alpha-trifluoro-m-tolyl)thio]quinazoline and related 2,4-diamino-6-[(phenyl- and naphthyl)thio]quinazolines, a unique class of antimetabolites with extraordinary antimalarial and antibacterial effects” (J Med Chem, 1978).
Values after ≈ are worked out from the molar mass of the structure shown. Active and inactive are the calls of the source. The calls are words filed in the database; no cut-off is given here.

Tests used:
Plasmodium gallinaceum [1] = test: Antimalarial activity against trophozoite-induced Plasmodium gallinaceum infected in white leghorn chicken assessed as increase in mean survival days of host at 5 mg/kg, sc administered 72 hrs after infection relative to control; type: functional; details: route subcutaneous
Plasmodium berghei [2] = test: Antimalarial activity against Plasmodium berghei infected in mouse assessed as increase in mean survival days of host at 1.25 mg/kg, sc administered 72 hrs after infection relative to control; type: functional; details: route subcutaneous
Plasmodium berghei [3] = test: Antimalarial activity against Plasmodium berghei infected in mouse assessed as increase in mean survival days of host at 2.5 mg/kg, sc administered 72 hrs after infection relative to control; type: functional; details: route subcutaneous
Plasmodium gallinaceum [4] = test: Antimalarial activity against trophozoite-induced Plasmodium gallinaceum infected in white leghorn chicken assessed as increase in mean survival days of host at 160 mg/kg, sc administered 72 hrs after infection relative to control; type: functional; details: route subcutaneous
Plasmodium berghei [5] = test: Antimalarial activity against Plasmodium berghei infected in mouse assessed as increase in mean survival days of host at 5 mg/kg, sc administered 72 hrs after infection relative to control; type: functional; details: route subcutaneous
Plasmodium gallinaceum [6] = test: Antimalarial activity against trophozoite-induced Plasmodium gallinaceum infected in white leghorn chicken assessed as increase in mean survival days of host at 20 mg/kg, sc administered 72 hrs after infection relative to control; type: functional; details: route subcutaneous
Plasmodium gallinaceum [7] = test: Antimalarial activity against trophozoite-induced Plasmodium gallinaceum infected in white leghorn chicken assessed as increase in mean survival days of host at 40 mg/kg, sc administered 72 hrs after infection relative to control; type: functional; details: route subcutaneous
Plasmodium gallinaceum [8] = test: Antimalarial activity against trophozoite-induced Plasmodium gallinaceum infected in white leghorn chicken assessed as increase in mean survival days of host at 10 mg/kg, sc administered 72 hrs after infection relative to control; type: functional; details: route subcutaneous
Plasmodium gallinaceum [9] = test: Antimalarial activity against trophozoite-induced Plasmodium gallinaceum infected in white leghorn chicken assessed as increase in mean survival days of host at 80 mg/kg, sc administered 72 hrs after infection relative to control; type: functional; details: route subcutaneous
Plasmodium berghei [10] = test: Antimalarial activity against Plasmodium berghei infected in mouse assessed as increase in mean survival days of host at 10 mg/kg, sc administered 72 hrs after infection relative to control; type: functional; details: route subcutaneous
Plasmodium gallinaceum [11] = test: Antimalarial activity against trophozoite-induced Plasmodium gallinaceum infected in white leghorn chicken assessed as increase in mean survival days of host at 2.5 mg/kg, sc administered 72 hrs after infection relative to control; type: functional; details: route subcutaneous
Plasmodium berghei [12] = test: Antimalarial activity against Plasmodium berghei infected in mouse assessed as increase in mean survival days of host at 20 mg/kg, sc administered 72 hrs after infection relative to control; type: functional; details: route subcutaneous
Plasmodium gallinaceum [13] = test: Antimalarial activity against trophozoite-induced Plasmodium gallinaceum infected in white leghorn chicken assessed as increase in mean survival days of host at 1.25 mg/kg, sc administered 72 hrs after infection relative to control; type: functional; details: route subcutaneous
Gallus gallus = test: Toxicity in trophozoite-induced Plasmodium gallinaceum infected white leghorn chicken assessed as mortality at 320 mg/kg, sc administered 72 hrs after infection measured after 48 hrs; type: organism-based; set-up: dose 320 mg/kg, route subcutaneous; details: in vivo
Plasmodium berghei [14] = test: Antimalarial activity against trophozoite-induced Plasmodium berghei infected in mouse assessed as daily dose required to suppression of 90% parasite infection administered with diet for 6 days; type: functional
Plasmodium berghei [15] = test: Antimalarial activity against Plasmodium berghei infected in mouse assessed as disease cure from parasite infection at 40 mg/kg, sc administered 72 hrs after infection; type: functional, organism-based; set-up: dose 40 mg/kg
Plasmodium berghei [16] = test: Antimalarial activity against chloroquine-resistant Plasmodium berghei assessed as drug resistance; type: functional, organism-based
Escherichia coli = test: Antibacterial activity against Escherichia coli Vogel by gradient plate test; type: functional
Plasmodium gallinaceum [17] = test: Antimalarial activity against sporozoite-induced Plasmodium gallinaceum infected in white leghorn chicken assessed as disease cure from parasite infection at 240 mg/kg, sc administered 72 hrs after infection; type: functional, organism-based; set-up: dose 240 mg/kg
Plasmodium gallinaceum [18] = test: Antimalarial activity against sporozoite-induced Plasmodium gallinaceum infected in white leghorn chicken assessed as disease cure from parasite infection at 480 mg/kg, sc administered 72 hrs after infection; type: functional, organism-based; set-up: dose 480 mg/kg
Enterococcus faecalis = test: Antibacterial activity against Streptococcus faecalis MGH-2 by gradient plate test; type: functional
Plasmodium gallinaceum [19] = test: Antimalarial activity against sporozoite-induced Plasmodium gallinaceum infected in white leghorn chicken assessed as disease cure from parasite infection at 15 mg/kg, sc administered 72 hrs after infection; type: functional, organism-based; set-up: dose 15 mg/kg
Plasmodium berghei [20] = test: Antimalarial activity against Plasmodium berghei infected in mouse assessed as disease cure from parasite infection at 160 mg/kg, sc administered 72 hrs after infection; type: functional, organism-based; set-up: dose 160 mg/kg
Plasmodium berghei [21] = test: Antimalarial activity against cycloguanil-resistant Plasmodium berghei assessed as drug resistance; type: functional, organism-based
Plasmodium berghei [22] = test: Antimalarial activity against Plasmodium berghei infected in mouse assessed as disease cure from parasite infection at 320 mg/kg, sc administered 72 hrs after infection; type: functional, organism-based; set-up: dose 320 mg/kg
Plasmodium gallinaceum [23] = test: Antimalarial activity against sporozoite-induced Plasmodium gallinaceum infected in white leghorn chicken assessed as disease cure from parasite infection at 30 mg/kg, sc administered 72 hrs after infection; type: functional, organism-based; set-up: dose 30 mg/kg
Staphylococcus aureus [24] = test: Antibacterial activity against Staphylococcus aureus UC-96 by gradient plate test; type: functional
Plasmodium gallinaceum [25] = test: Antimalarial activity against sporozoite-induced Plasmodium gallinaceum infected in white leghorn chicken assessed as disease cure from parasite infection at 60 mg/kg, sc administered 72 hrs after infection; type: functional, organism-based; set-up: dose 60 mg/kg
Plasmodium berghei [26] = test: Antimalarial activity against Plasmodium berghei infected in mouse assessed as disease cure from parasite infection at 80 mg/kg, sc administered 72 hrs after infection; type: functional, organism-based; set-up: dose 80 mg/kg
Plasmodium berghei [27] = test: Antimalarial activity against Plasmodium berghei infected in mouse assessed as disease cure from parasite infection at 10 mg/kg, sc administered 72 hrs after infection; type: functional, organism-based; set-up: dose 10 mg/kg
Shigella sonnei = test: Antibacterial activity against Shigella sonnei C-10 by gradient plate test; type: functional
Pseudomonas aeruginosa = test: Antibacterial activity against Pseudomonas aeruginosa 28 by gradient plate test; type: functional
Plasmodium berghei [28] = test: Antimalarial activity against Plasmodium berghei infected in mouse assessed as disease cure from parasite infection at 20 mg/kg, sc administered 72 hrs after infection; type: functional, organism-based; set-up: dose 20 mg/kg
Plasmodium berghei [29] = test: Ratio of quinine hydrochloride SD90 to compound SD90 for trophozoite-induced Plasmodium berghei infected in mouse assessed as daily dose required to suppression of 90% parasite infection administered with diet for 6 days; type: functional
Plasmodium berghei [30] = test: Antimalarial activity against Plasmodium berghei infected in mouse assessed as disease cure from parasite infection at 640 mg/kg, sc administered 72 hrs after infection; type: functional, organism-based; set-up: dose 640 mg/kg
Plasmodium gallinaceum [31] = test: Antimalarial activity against sporozoite-induced Plasmodium gallinaceum infected in white leghorn chicken assessed as disease cure from parasite infection at 7.5 mg/kg, sc administered 72 hrs after infection; type: functional, organism-based; set-up: dose 7.5 mg/kg
Staphylococcus aureus [32] = test: Antibacterial activity against drug-resistant Staphylococcus aureus S18713 by gradient plate test; type: functional
Plasmodium gallinaceum [33] = test: Antimalarial activity against sporozoite-induced Plasmodium gallinaceum infected in white leghorn chicken assessed as disease cure from parasite infection at 120 mg/kg, sc administered 72 hrs after infection; type: functional, organism-based; set-up: dose 120 mg/kg

Molecule `CN(Cc1ccc(Cl)c(Cl)c1)c1ccc2nc(N)nc(N)c2c1` has an MST (Plasmodium gallinaceum [1]) of 6.8 days, an MST (Plasmodium berghei [2]) of 0.3 days and an MST (Plasmodium berghei [3]) of 1.5 days. It also gave an MST (Plasmodium gallinaceum [4]) of 21 days, an MST (Plasmodium berghei [5]) of 2.9 days and an MST (Plasmodium gallinaceum [6]) of 10.6 days. It also gave an MST (Plasmodium gallinaceum [7]) of 15.6 days, an MST (Plasmodium gallinaceum [8]) of 7.4 days and an MST (Plasmodium gallinaceum [9]) of 20.6 days. For the same molecule, the MST (Plasmodium berghei [10]) was 7.5 days, the MST (Plasmodium gallinaceum [11]) was 6 days and the MST (Plasmodium berghei [12]) was 14.9 days. The MST (Plasmodium gallinaceum [13]) was 1.4 days and the Activity (Gallus gallus) was “Toxic”.

For `Nc1nc(N)c2cc(Sc3ccc(Br)cc3)ccc2n1`, the SD90 (Plasmodium berghei [14]) was 1.2 mg/kg/day, the Activity (Plasmodium berghei [15]) was “Active” and the MST (Plasmodium gallinaceum [1]) was 7.2 days. The Activity (Plasmodium berghei [16]) was “inactive”, the MST (Plasmodium berghei [2]) was 2.2 days and the MIC (Escherichia coli) was 1 µg/mL (≈ 2.88 µM). For the same molecule, the Activity (Plasmodium gallinaceum [17]) was “Active”, the Activity (Plasmodium gallinaceum [18]) was “Active” and the MIC (Enterococcus faecalis) was < 0.25 µg/mL. For the same molecule, the MST (Plasmodium berghei [3]) was 3.6 days, the Activity (Plasmodium gallinaceum [19]) was “Active” and the MST (Plasmodium berghei [5]) was 6.7 days. The Activity (Plasmodium berghei [20]) was “Active”, the MST (Plasmodium gallinaceum [6]) was 11.8 days and the Activity (Plasmodium berghei [21]) was “Active”. The MST (Plasmodium gallinaceum [7]) was 12.8 days, the Activity (Plasmodium berghei [22]) was “Active” and the MST (Plasmodium gallinaceum [8]) was 8.2 days. The Activity (Plasmodium gallinaceum [23]) was “Active”, the MST (Plasmodium berghei [10]) was 19.6 days and the MIC (Staphylococcus aureus [24]) was < 0.25 µg/mL. The MST (Plasmodium gallinaceum [11]) was 6 days, the Activity (Plasmodium gallinaceum [25]) was “Active” and the Activity (Plasmodium berghei [26]) was “Active”. The MST (Plasmodium berghei [12]) was 14.4 days, the Activity (Plasmodium berghei [27]) was “Active” and the MIC (Shigella sonnei) was 2 µg/mL (≈ 5.76 µM). For the same molecule, the MST (Plasmodium gallinaceum [13]) was 3 days, the MIC (Pseudomonas aeruginosa) was > 25 µg/mL and the Activity (Plasmodium berghei [28]) was “Active”. For the same molecule, the Ratio (Plasmodium berghei [29]) was 62, the Activity (Plasmodium berghei [30]) was “Active” and the Activity (Plasmodium gallinaceum [31]) was “Active”. For the same molecule, the MIC (Staphylococcus aureus [32]) was < 0.25 µg/mL and the Activity (Plasmodium gallinaceum [33]) was “Active”.
